Experimental data from patent US9708602B2, “Screening for inhibitors of ribosome biogenesis” (priority 2013, dated 2017).

How the values were obtained:
MCrg* cells = experiment: Probing MCrg* with ribosome-targeting antibiotics: whole-cell growth and mAzami/mCherry fluorescence ratio; type: cell-based, E. coli
Protocol: (§1) Whole-cell analyses (A-B): MCrg* cells were cultured in at 25° C. in M9 medium for 7 hours in the absence and presence of antibiotics, as indicated. Samples were taken every hour. (A) OD600 values were determined and (B) mAzami and mCherry fluorescence emission were detected and ratios were calculated. Fluorescence ratios of MCrg* were normalized to 1. Exemplary growth curves are given and fluorescence ratios are means from three independent experiments; error bars show s.d. Analyses of isolated ribosomal particles (C-H and J-M): Sucrose density gradient (10-25%) centrifugation profiles from (C) control cells with no antibiotic (none), (D) chloramphenicol (Cam), (E) erythromycin (Ery), (F) kanamycin (Kan) and (G) neomycin (Neo) treated cells. Sucrose gradient fractions from (C) to (G) were analyzed for fluorescence by a micro plate reader. A254 profiles and fluorescence bar charts were superimposed for (H) control cells with no antibiotic (none), (J) chloramphenicol (Cam), (K) erythromycin (Ery), (L) kanamycin (kan) and (M) neomycin (Neo) treated cells. Cells in presence and absence of antibiotics were cultured in LB medium at 25° C. for 3 hours before subsequent polysome analysis. Left shifted peaks of the large subunit are indicated by horizontal arrows, abnormal portions of the small subunit by vertical arrows; Bars with black lines: normalized mCherry fluorescence; Black bars: normalized mAzami fluorescence. Fluorescence was normalized to the first polysome peak (“disome”) where subunits are present in 1:1 ratio.
(§2) Using MCrg*, it was investigated, whether treatment of cells with ribosome targeting antibiotics results in assembly defects of both ribosomal subunits. The antibiotics tested were chloramphenicol, erythromycin and neomycin, which are known to cause assembly defects of both ribosomal subunits, and kanamycin, which was so far not investigated for its potential to cause ribosome assembly defects. MCrg* cells were cultured in M9 medium for seven hours in the absence or presence of chloramphenicol (7 μg/ml), erythromycin (100 μg/ml), kanamycin (7 μg/ml) or neomycin (7 μg/ml). […] Treatment with chloramphenicol, by contrast, led to an increased fluorescence ratio, with a maximum of 1.20 after 7 hours. […] This hypothesis was tested by analyzing ribosome profiles obtained from MCrg* cells that grew in the presence of the antibiotics or without (FIG. 15C-G). […] The 70S peak and the polysomes (not shown) are reduced in intensity since no chloramphenicol was added prior to harvesting to prevent 70S run off.

[1] = tested on: ribosomal subunits of MCrg* cells; experiment: Sucrose density gradient ribosome profiles (A254 and fluorescence of fractions) of antibiotic treated MCrg* cells; type: cell-based, E. coli; settings: for 30S peak region in A254 ribosome profile / 50S peak in A254 ribosome profile: cells cultured with antibiotic in LB medium at 25° C. for 3 hours, 10-25% sucrose gradient; for green (mAzami, large subunit) fluorescence in overlay of A254 and fluorescence profiles: sucrose gradient fractions, micro plate reader
Protocol: as §1, §2
When focusing on the overlay diagrams (combining A254 and fluorescence read outs) (FIG. 15H, J-M), ribosome profiles from non treated cells are basically congruent (FIG. 15H). […] These peaks of green fluorescence presumably represent defective assembly intermediates of the large subunit that are caused by all the antibiotics used in this study, but to different extend. […] To analyze eventual defects of the small subunit in more detail, the red fluorescence profiles were aligned and the one derived from non treated cells was compared with all the others obtained from antibiotic treated cells. […] A more thorough analysis including quantitation of the 16S and 23S rRNA within the sucrose fractions confirmed the presence of assembly intermediates.
E. coli cells were inoculated from stationary cultures and incubated until mid-logarithmic phase (OD600=0.6-0.8). In order to record polysome profiles, cells were sedimented, resuspended and lysed. After centrifugation, lysates of 10 A260 units were loaded onto 5-45% sucrose gradients for polysome profiles or 10-40% gradients for subunit separation. Ultracentrifugation was performed at 41.000 rpm (3 h; polysome profiles) or 23.000 rpm (16 h, subunit separation). Ribosomal components in the gradients were analyzed by recording the A254 values and collecting 200 μl and 50 μl fractions, respectively, that were later examined in 96-well plates on fluorescence by using a plate reader.

[2] = tested on: E. coli MC4100 and MC-RG1 cells; experiment: Detection of ribosome assembly defects: growth (A650) and EGFP/mCherry fluorescence time course in 96-well plates; type: cell-based; settings: 30° C., 96-well plate
Description: Monitoring biogenesis and assembly of ribosomal subunits also allows the detection of abnormalities in ribosome biogenesis and assembly processes. […] Chloramphenicol primarily binds to the large subunit and thereby inhibits the peptidyl transfer reaction. Alongside a resulting shut-down of protein synthesis, accumulating precursor particles of both ribosomal subunits have been observed. Therefore, treatment of cells with chloramphenicol causes precursor accumulation and assembly defects of ribosomal subunits. E. coli MC4100 and MC-RG1 cells were transferred to 96-well plates and incubated at 30° C. in a plate reader. After one hour, wild-type and reporter cells were treated with increasing amounts of chloramphenicol and incubation was continued for another six more hours. A650 values, EGFP and mCherry specific fluorescence intensities were automatically detected. In the absence of chloramphenicol, the growth curve of the reporter strain reached a maximum A650 of 0.5. […] In vivo fluorescence recordings of the E. coli MC4100rp/S-egfp,rpsB-mcherry-ΔygdP cells growing in 96-well plates were performed and fluorescent signals measured. EGFP/mCherry fluorescence intensity ratios differed clearly when comparing MC4100rp/S-egfp,rpsB-mcherry (RN55b) with MC4100rplS-egfp,rpsB-mcherry-ΔygdP reporter strains. […] The overall decreased EGFP/mCherry fluorescence ratio values of the knock-out strain compared to the RN55b reporter strain are caused by proportional lower EGFP fluorescence intensities. In summary, fluorescence recordings of reporter strains are suitable to detect changes in the level of ribosomal subunits, e.g. due to biogenesis defects.
Cells grown to stationary phase were diluted to an OD600 of 0.05 and transferred into 96-well plates, such that each well contained an initial volume of 100 μl. […] Cells were further incubated in the plate reader for several hours and fluorescence as well as A650 data were collected every 10 minutes. Mean values were calculated and MC4100 fluorescence background values were subtracted from the reporter strain values.

Molecule	cell growth (OD600) (MCrg* cells; M9 medium, seven hours, 25° C., chloramphenicol 7 μg/ml, erythromycin 100 μg/ml, kanamycin 7 μg/ml, neomycin 7 μg/ml)	normalized fluorescence ratio (mAzami/mCherry), maximum (MCrg* cells; chloramphenicol 7 μg/ml, after 7 hours, untreated MCrg* normalized to 1)	30S peak region in A254 ribosome profile [1]	50S peak in A254 ribosome profile [1]	green (mAzami, large subunit) fluorescence in overlay of A254 and fluorescence profiles [1]	concentration above which cells did not grow any further ([2]; added after one hour, six more hours incubation)	cell growth (A650) ([2]; increasing amounts added after one hour, six more hours incubation)	EGFP and mCherry fluorescence ([2]; increasing concentrations)	normalized fluorescence ratio (mAzami/mCherry) (MCrg* cells; erythromycin 100 μg/ml, after 5 hours, untreated MCrg* normalized to 1)	change in the fluorescence ratio (mAzami/mCherry) (MCrg* cells; 7 μg/ml, seven hours time course)
O=C(N[C@H](CO)[C@H](O)c1ccc([N+](=O)[O-])cc1)C(Cl)Cl [chloramphenicol]	strongest growth defects	1.20	additional peak (left-lateral of 30S)	reduced and left shifted 50S peaks	portion of green fluorescence within the region of the 30S peak	higher than 15.5 μM	dosedependent reduction of cell growth	decreased with increasing concentrations	–	–
CC[C@H]1OC(=O)[C@H](C)[C@@H](O[C@H]2C[C@@](C)(OC)[C@@H](O)[C@H](C)O2)[C@H](C)[C@@H](O[C@@H]2O[C@H](C)C[C@H](N(C)C)[C@H]2O)[C@](C)(O)C[C@@H](C)C(=O)[C@H](C)[C@@H](O)[C@]1(C)O [erythromycin]	–	–	30S peak had a shoulder on the left	reduced and left shifted 50S peaks	portion of green fluorescence within the region of the 30S peak	–	–	–	0.95	–
neomycin	–	–	additional peak on the left of the 30S peak	slight reduction and left shift of the 50S peak	green fluorescent peaks of weaker intensity but at similar positions within the profile	–	–	–	–	did not show a significant change in the fluorescence ratio
